Holding throughout (experiment): relative viability (nuclei count vs DMSO), 5 days (fraction); higher = more cells survive
Compound in assay [1]: CC(C)(C)c1nc(-c2cccc(NS(=O)(=O)c3c(F)cccc3F)c2F)c(-c2ccnc(N)n2)s1 [Dabrafenib] + CC(C)C[C@H](NC(=O)[C@H](Cc1ccccc1)NC(=O)c1cnccn1)B(O)O [Bortezomib] (partner 0.002 µM)
An outline of the steps: (§1)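 Lung cancer cell lines in 1536-well plates got either a single drug or a fixed anchor-drug dose together with five library-drug doses (not always all listed) in √10 steps, by pin tool, on the day after seeding. Nuclei were counted after 5 days, and relative viability is the treated-to-vehicle ratio of nuclei counts. Values are medians of duplicate plates.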

Compound in assay [2]: CC(C)(C)c1nc(-c2cccc(NS(=O)(=O)c3c(F)cccc3F)c2F)c(-c2ccnc(N)n2)s1 [Dabrafenib] + CS(=O)(=O)N1CCN(Cc2cc3nc(-c4cccc5[nH]ncc45)nc(N4CCOCC4)c3s2)CC1 [Pictilisib] (partner 1 µM)
In outline: as §1

Compound in assay [3]: CC(C)(C)c1nc(-c2cccc(NS(=O)(=O)c3c(F)cccc3F)c2F)c(-c2ccnc(N)n2)s1 [Dabrafenib] + O=C(c1cc(Cc2n[nH]c(=O)c3ccccc23)ccc1F)N1CCN(C(=O)C2CC2)CC1 [Olaparib] (partner 8 µM)
An outline of the steps:
as §1

Compound in assay [4]: NC(=O)c1ccc(N(C(N)=O)c2c(F)cccc2F)nc1-c1ccc(F)cc1F [VX-702] + Cc1nc(Nc2ncc(C(=O)Nc3c(C)cccc3Cl)s2)cc(N2CCN(CCO)CC2)n1 [Dasatinib] (partner 0.075 µM)
In outline: as §1

Consider SW 1573, for which the relative viability in assay [1] (first compound 0.003 µM) was found to be 1.11; in assay [1] (first compound 0.009487 µM), 1.16; in assay [1] (first compound 0.03 µM) it was 1.13; in assay [1] (first compound 0.09487 µM), 0.996; in assay [1] (first compound 0.3 µM), 1.17; in assay [2] (first compound 0.003 µM), 0.501. In addition, the relative viability was 0.474 in assay [2] (first compound 0.009487 µM); 0.454 in assay [2] (first compound 0.03 µM); 0.426 in assay [2] (first compound 0.09487 µM); 0.505 in assay [2] (first compound 0.3 µM); 0.501 in assay [3] (first compound 0.003 µM); 0.468 in assay [3] (first compound 0.009487 µM). In addition, the relative viability is 0.475 in assay [3] (first compound 0.03 µM); 0.415 in assay [3] (first compound 0.09487 µM); 0.453 in assay [3] (first compound 0.3 µM); 0.566 in assay [4] (first compound 0.02 µM); 0.455 in assay [4] (first compound 0.2 µM); 0.427 in assay [4] (first compound 0.6325 µM). Further, the relative viability in assay [4] (first compound 2 µM) was 0.426.
As for UMC-11, the relative viability in assay [1] (first compound 0.003 µM) is 1.05; in assay [1] (first compound 0.009487 µM), 0.637; in assay [1] (first compound 0.03 µM) it was 0.647; in assay [1] (first compound 0.09487 µM) it was 0.681; in assay [1] (first compound 0.3 µM) it was 0.735; in assay [2] (first compound 0.003 µM), 0.749. Further, the relative viability in assay [2] (first compound 0.009487 µM) stood at 0.819; in assay [2] (first compound 0.03 µM), 0.621; in assay [2] (first compound 0.09487 µM), 0.832; in assay [2] (first compound 0.3 µM), 0.888; in assay [3] (first compound 0.003 µM), 0.443; in assay [3] (first compound 0.009487 µM), 0.879. The relative viability in assay [3] (first compound 0.03 µM) turned out to be 0.354; in assay [3] (first compound 0.09487 µM), 0.317; in assay [3] (first compound 0.3 µM), 0.427; in assay [4] (first compound 0.02 µM), 0.456; in assay [4] (first compound 0.2 µM), 0.379; in assay [4] (first compound 0.6325 µM), 0.386. Moreover, the relative viability in assay [4] (first compound 2 µM) stood at 0.492.
